Test results from PubChem BioAssay (NCI).
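Test compounds were applied to cells in 96-well plates for 48 hours at 5 doses. TGI: total growth inhibition.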

Key:
Test in all cases: NCI-60 cell line screen, 48 h
[1] = tested on: HOP-92 NSCLC
[2] = tested on: HT29 colon
[3] = tested on: OVCAR-4 ovarian
[4] = tested on: HL-60(TB) leukemia
[5] = tested on: RXF 393 renal
[6] = tested on: MOLT-4 leukemia
[7] = tested on: NCI/ADR-RES ovarian
[8] = tested on: COLO 205 colon
[9] = tested on: SR leukemia
[10] = tested on: SN12C renal
[11] = tested on: SK-MEL-5 melanoma
[12] = tested on: M14 melanoma
[13] = tested on: NCI-H23 lung
[14] = tested on: T-47D breast
[15] = tested on: SNB-75 CNS
[16] = tested on: MDA-N
[17] = tested on: CAKI-1 renal
[18] = tested on: U251 CNS
[19] = tested on: CCRF-CEM leukemia
[20] = tested on: SK-MEL-2 melanoma
[21] = tested on: MDA-MB-435
[22] = tested on: OVCAR-3 ovarian
[23] = tested on: RPMI-8226 leukemia
[24] = tested on: DU-145 prostate
[25] = tested on: HS 578T breast
[26] = tested on: OVCAR-5 ovarian
[27] = tested on: UACC-62 melanoma
[28] = tested on: NCI-H226 lung
[29] = tested on: LOX IMVI melanoma
[30] = tested on: SW-620 colon
[31] = tested on: PC-3 prostate
[32] = tested on: SK-MEL-28 melanoma
[33] = tested on: HCC-2998 colon
[34] = tested on: NCI-H460 lung
[35] = tested on: MCF7 breast
[36] = tested on: SNB-19 CNS
[37] = tested on: OVCAR-8 ovarian
[38] = tested on: SK-OV-3 ovarian
[39] = tested on: HCT-116 colon
[40] = tested on: IGROV1 ovarian
[41] = tested on: A549 NSCLC
[42] = tested on: SF-268 CNS
[43] = tested on: UO-31 renal
[44] = tested on: ACHN renal
[45] = tested on: SF-295 CNS
[46] = tested on: HOP-62 NSCLC
[47] = tested on: TK-10 renal
[48] = tested on: BT-549 breast
[49] = tested on: UACC-257 melanoma
[50] = tested on: KM12 colon
[51] = tested on: EKVX NSCLC
[52] = tested on: K-562 leukemia
[53] = tested on: MDA-MB-231 breast
[54] = tested on: SF-539 CNS
[55] = tested on: HCT-15 colon
[56] = tested on: 786-0 renal
[57] = tested on: NCI-H522 lung
[58] = tested on: A498 renal

## COc1cc(CCCl)c(CC2=NCCc3cc(OC)c(OC)cc32)cc1OC
[1]
  TGI: > 100 µM
[2]
  TGI: > 100 µM
[3]
  TGI: > 100 µM
[4]
  TGI: > 100 µM
[5]
  TGI: > 100 µM
[6]
  TGI: > 100 µM
[7]
  TGI: > 100 µM
[8]
  TGI: > 100 µM
[9]
  TGI: > 100 µM
[10]
  TGI: > 100 µM
[11]
  TGI: > 100 µM
[12]
  TGI: > 100 µM
[13]
  TGI: > 100 µM
[14]
  TGI: > 100 µM
[15]
  TGI: > 100 µM
[16]
  TGI: > 100 µM
[17]
  TGI: > 100 µM
[18]
  TGI: > 100 µM
[19]
  TGI: > 100 µM
[20]
  TGI: > 100 µM
[21]
  TGI: > 100 µM
[22]
  TGI: > 100 µM
[23]
  TGI: > 100 µM
[24]
  TGI: > 100 µM
[25]
  TGI: 80.7 µM
[26]
  TGI: > 100 µM
[27]
  TGI: > 100 µM
[28]
  TGI: > 100 µM
[29]
  TGI: > 100 µM
[30]
  TGI: > 100 µM
[31]
  TGI: > 100 µM
[32]
  TGI: > 100 µM
[33]
  TGI: > 100 µM
[34]
  TGI: > 100 µM
[35]
  TGI: > 100 µM
[36]
  TGI: > 100 µM
[37]
  TGI: > 100 µM
[38]
  TGI: > 100 µM
[39]
  TGI: > 100 µM
[40]
  TGI: > 100 µM
[41]
  TGI: > 100 µM
[42]
  TGI: > 100 µM
[43]
  TGI: > 100 µM
[44]
  TGI: > 100 µM
[45]
  TGI: > 100 µM
[46]
  TGI: > 100 µM
[47]
  TGI: > 100 µM
[48]
  TGI: > 100 µM
[49]
  TGI: > 100 µM
[50]
  TGI: > 100 µM
[51]
  TGI: > 100 µM
[52]
  TGI: > 100 µM
[53]
  TGI: > 100 µM
[54]
  TGI: 57.7 µM

## C=C1C/C(=C/C)C(=O)O[C@@H]2CCN3CC=C(COC(=O)[C@]1(C)O)[C@H]23
[1]
  TGI: > 100 µM
[55]
  TGI: > 100 µM
[2]
  TGI: > 100 µM
[3]
  TGI: > 100 µM
[4]
  TGI: > 100 µM
[7]
  TGI: > 100 µM
[8]
  TGI: > 100 µM
[9]
  TGI: > 100 µM
[11]
  TGI: > 100 µM
[12]
  TGI: > 100 µM
[13]
  TGI: > 100 µM
[14]
  TGI: > 100 µM
[15]
  TGI: > 100 µM
[16]
  TGI: > 100 µM
[17]
  TGI: > 100 µM
[18]
  TGI: > 100 µM
[19]
  TGI: > 100 µM
[20]
  TGI: > 100 µM
[56]
  TGI: > 100 µM
[21]
  TGI: > 100 µM
[22]
  TGI: > 100 µM
[57]
  TGI: > 100 µM
[23]
  TGI: > 100 µM
[24]
  TGI: > 100 µM
[25]
  TGI: > 100 µM
[26]
  TGI: > 100 µM
[27]
  TGI: > 100 µM
[28]
  TGI: > 100 µM
[29]
  TGI: > 100 µM
[30]
  TGI: > 100 µM
[31]
  TGI: > 100 µM
[32]
  TGI: > 100 µM
[33]
  TGI: > 100 µM
[34]
  TGI: > 100 µM
[35]
  TGI: > 100 µM
[36]
  TGI: > 100 µM
[37]
  TGI: > 100 µM
[38]
  TGI: > 100 µM
[39]
  TGI: > 100 µM
[58]
  TGI: > 100 µM
[40]
  TGI: > 100 µM
[41]
  TGI: > 100 µM
[42]
  TGI: > 100 µM
[43]
  TGI: > 100 µM
[44]
  TGI: > 100 µM
[45]
  TGI: > 100 µM
[46]
  TGI: > 100 µM
[47]
  TGI: > 100 µM
[48]
  TGI: > 100 µM
[49]
  TGI: > 100 µM
[50]
  TGI: > 100 µM
[51]
  TGI: > 100 µM
[52]
  TGI: > 100 µM
[53]
  TGI: > 100 µM
[54]
  TGI: > 100 µM
